Reference: patent publication US8575091B1, “Amylin analogues and pharmaceutical compositions thereof” (Novo Nordisk A/S, priority 2012, dated 2013)
Where two headings read alike, the source gives them in different places. Numbered stars: 1 amine (or outer) side, 2 acyl side, 3 side chain; on linkers, the order of the positions; unused ones are H or OH. Bridge positions count the residues as written; N and C are the ends. Side chains are listed from the residue outwards. Peptide text beside a SMILES is read from it. * marks the point of attachment. C20 diacid = O=C(O)CCCCCCCCCCCCCCCCCCC(=O)*; γGlu = O=C(O)[C@H](CCC(=O)[*:2])N[*:1]; AEEA = NCCOCCOCC(=O)O

Legend:
[1] = target: T1, human amylin receptor (amylin 3(a) receptor: human calcitonin receptor + RAMP-3) (Homo sapiens, UniProt O60896+P30988); assay: Assay (II)a functional assay, human amylin receptor (CRE luciferase, BHK cells); format: cell-based; settings: for EC50: read-out: hAmylin-R funct. EC50
T1 construct: expressed in transfected cells
T1 sequence (P30988 25-474): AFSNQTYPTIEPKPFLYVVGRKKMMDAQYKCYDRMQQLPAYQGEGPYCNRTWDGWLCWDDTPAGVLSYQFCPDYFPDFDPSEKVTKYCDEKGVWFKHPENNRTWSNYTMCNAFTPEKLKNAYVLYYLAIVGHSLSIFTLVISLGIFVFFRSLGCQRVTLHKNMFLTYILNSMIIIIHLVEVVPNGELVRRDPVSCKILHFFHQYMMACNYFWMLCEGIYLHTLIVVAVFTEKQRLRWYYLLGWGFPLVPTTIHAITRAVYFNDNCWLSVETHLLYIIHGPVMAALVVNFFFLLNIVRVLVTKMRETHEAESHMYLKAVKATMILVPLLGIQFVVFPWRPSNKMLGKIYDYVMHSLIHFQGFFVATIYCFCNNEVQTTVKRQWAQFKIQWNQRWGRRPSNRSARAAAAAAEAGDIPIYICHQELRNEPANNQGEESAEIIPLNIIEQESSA
T1 sequence (O60896 24-148 partner): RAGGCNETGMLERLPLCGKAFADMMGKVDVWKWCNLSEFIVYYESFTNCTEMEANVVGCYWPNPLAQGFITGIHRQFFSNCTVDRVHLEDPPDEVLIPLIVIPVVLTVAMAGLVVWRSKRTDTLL

[2] = target: T2, human calcitonin receptor (Homo sapiens, UniProt P30988); assay: Assay (II)a functional assay, human calcitonin receptor (CRE luciferase, BHK cells);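 further: luminescence from a CRE-driven luciferase reporter, read by single photon counting after cells were exposed to test samples for 3 h at 37 °C under 5% CO2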; format: cell-based; settings: read-out: hCTR funct. EC50
T2 construct: expressed in transfected cells
T2 sequence (P30988 25-474): T1 sequence (P30988 25-474)

[3] = target: T3, human amylin receptor (Homo sapiens, UniProt O60896+P30988); assay: Assay (V) binding to the human amylin receptor (SPA, 125I-rat amylin); settings: for IC50: human amylin receptor membranes, SPA, read-out: hAmylin-R bind IC50
T3 construct: expressed in transfected cells
T3 sequence (P30988 25-474): T1 sequence (P30988 25-474)
T3 sequence (O60896 24-148 partner): T1 sequence (O60896 24-148 partner)
Method in brief: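 IC50, taken as receptor affinity, came from one-site binding competition analysis of scintillation proximity counts. Amylin 3(a)/CRE-luc cell membranes (35 ng/μL final) were mixed with SPA beads (0.05 mg/well) in 50 mM Hepes pH 7.4 containing CaCl2, MgCl2, 0.1% OA and 0.02% Tween20.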

[4] = target: T2, human calcitonin receptor; assay: Assay (VII) binding to the human calcitonin receptor (SPA, 125I-Calcitonin); settings: read-out: hCTR bind IC50;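 further: cell membranes coupled to SPA beads, competitive displacement read by scintillation counting, IC50 derived from a one-site competition fit as a measure of receptor affinity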
[5] = functional assay, human amylin receptor
[6] = Table 7b, human calcitonin receptor binding IC50 divided by human amylin receptor binding IC50
[7] = Table 7c, human calcitonin receptor binding IC50 divided by human amylin receptor binding IC50
[8] = human binding ratio, included for comparison

Structure (SMILES) | EC50 [1, 5] | EC50 [2] | Ratio hCT/hAmylin binding [3, 6] | Ratio hCT/hAmylin binding [3, 7] | IC50 [3] | Ratio hCT/hAmylin binding [3, 8] | IC50 [4] | Ratio hCT/hAmylin funct. ([1]; Table 6, human functional selectivity (hCTR EC50 / hAmylin-R EC50)) | Ratio hCT/hAmylin funct. ([1]; Table 6a, human functional selectivity (hCTR EC50 / hAmylin-R EC50), at least 5) | Ratio hCT/hAmylin funct. ([1]; Table 6i, hCTR funct. EC50 / hAmylin-R funct. EC50) | EC50 ([1]; Table 6i, human amylin receptor functional) | Ratio hCT/hAmylin funct. ([1]; Table 6j, hCTR funct. EC50 / hAmylin-R funct. EC50)
CC[C@H](C)[C@H](NC(=O)[C@H](C)NC(=O)CNC(=O)[C@H](Cc1ccccc1)NC(=O)[C@H](CC(N)=O)NC(=O)[C@@H]1CCCN1C(=O)[C@H](CO)NC(=O)[C@H](CO)NC(=O)[C@H](Cc1c[nH]cn1)NC(=O)[C@H](CCCNC(=N)N)NC(=O)[C@H](CC(C)C)NC(=O)[C@H](Cc1ccccc1)NC(=O)[C@H](CC(=O)O)NC(=O)[C@H](C)NC(=O)[C@H](CC(C)C)NC(=O)[C@H](CCCNC(=N)N)NC(=O)[C@H](CCC(N)=O)NC(=O)[C@@H](NC(=O)[C@H](C)NC(=O)[C@@H]1CSSC[C@H](NC(=O)[C@@H](N)CCCCNC(=O)CC[C@H](NC(=O)CC[C@H](NC(=O)CCCCCCCCCCCCCCCCCCC(=O)O)C(=O)O)C(=O)O)C(=O)N[C@@H](CC(N)=O)C(=O)N[C@@H]([C@@H](C)O)C(=O)N[C@@H](C)C(=O)N[C@@H]([C@@H](C)O)C(=O)N1)[C@@H](C)O)C(=O)N1CCC[C@H]1C(=O)N[C@@H](CO)C(=O)N[C@@H](CO)C(=O)N[C@H](C(=O)N[C@@H](CC(N)=O)C(=O)N[C@H](C(=O)NCC(=O)N1CCC[C@H]1C(=O)N[C@@H](CCCNC(=N)N)C(=O)N[C@H](C(=O)N[C@@H](Cc1ccc(O)cc1)C(N)=O)[C@@H](C)O)C(C)C)[C@@H](C)O [Example 130] (H-K([γGlu-γGlu-C20 diacid])CNTATCATQRLADFLRHSSPNFGAIPSSTNVGPRTY-NH2; disulfide 2-7) | 0.162 nM | 7.28 nM | 280.0 | 280.0 | 0.453 nM | 280.0 | 127 nM | – | – | – | – | –
CC[C@H](C)[C@H](NC(=O)[C@H](C)NC(=O)CNC(=O)[C@H](Cc1ccccc1)NC(=O)[C@H](CC(N)=O)NC(=O)[C@@H]1CCCN1C(=O)[C@H](CO)NC(=O)[C@H](CO)NC(=O)[C@H](Cc1c[nH]cn1)NC(=O)[C@H](CCCNC(=N)N)NC(=O)[C@H](CC(C)C)NC(=O)[C@H](Cc1ccccc1)NC(=O)[C@H](CC(N)=O)NC(=O)[C@H](C)NC(=O)[C@H](CC(C)C)NC(=O)[C@H](CCCNC(=N)N)NC(=O)[C@H](CCC(N)=O)NC(=O)[C@@H](NC(=O)[C@H](C)NC(=O)[C@@H]1CSSC[C@H](NC(=O)[C@H](CCCCN)NC(=O)COCCOCCNC(=O)COCCOCCNC(=O)CC[C@H](NC(=O)CCCCCCCCCCCCCCCCCCC(=O)O)C(=O)O)C(=O)N[C@@H](CC(N)=O)C(=O)N[C@@H]([C@@H](C)O)C(=O)N[C@@H](C)C(=O)N[C@@H]([C@@H](C)O)C(=O)N1)[C@@H](C)O)C(=O)N1CCC[C@H]1C(=O)N[C@@H](CO)C(=O)N[C@@H](CO)C(=O)N[C@H](C(=O)N[C@@H](CC(N)=O)C(=O)N[C@H](C(=O)NCC(=O)N[C@@H](CO)C(=O)N[C@@H](CC(N)=O)C(=O)N[C@H](C(=O)N[C@@H](Cc1ccc(O)cc1)C(N)=O)[C@@H](C)O)C(C)C)[C@@H](C)O [Example 24] | 0.433 nM | 10 nM | 90.0 | 90.0 | 1.14 nM | 90.0 | 102 nM | – | – | – | – | –
CC[C@H](C)[C@H](NC(=O)[C@H](C)NC(=O)CNC(=O)[C@H](Cc1ccccc1)NC(=O)[C@H](CC(N)=O)NC(=O)[C@@H]1CCCN1C(=O)[C@H](CO)NC(=O)[C@H](CO)NC(=O)[C@H](Cc1c[nH]cn1)NC(=O)[C@H](CCCNC(=N)N)NC(=O)[C@H](CC(C)C)NC(=O)[C@H](Cc1ccccc1)NC(=O)[C@H](CCC(=O)O)NC(=O)[C@H](C)NC(=O)[C@H](CC(C)C)NC(=O)[C@H](CCCNC(=N)N)NC(=O)[C@H](CCC(N)=O)NC(=O)[C@@H](NC(=O)[C@H](C)NC(=O)[C@@H]1CSSC[C@H](NC(=O)[C@H](CCCCN)NC(=O)CC[C@H](NC(=O)CCCCCCCCCCCCCCCCCCC(=O)O)C(=O)O)C(=O)N[C@@H](CC(N)=O)C(=O)N[C@@H]([C@@H](C)O)C(=O)N[C@@H](C)C(=O)N[C@@H]([C@@H](C)O)C(=O)N1)[C@@H](C)O)C(=O)N1CCC[C@H]1C(=O)N[C@@H](CO)C(=O)N[C@@H](CO)C(=O)N[C@H](C(=O)N[C@@H](CC(N)=O)C(=O)N[C@H](C(=O)NCC(=O)N[C@@H](CO)C(=O)N[C@@H](CC(N)=O)C(=O)N[C@H](C(=O)N[C@@H](Cc1ccc(O)cc1)C(N)=O)[C@@H](C)O)C(C)C)[C@@H](C)O [Example 9] | – | 1.29 nM | – | – | 0.143 nM | 8.0 | 1.14 nM | 7.4 | 7.4 | 7.4 | 0.175 nM | 7.4

Further lines, results first:

EC50 [1, 5] | EC50 [2] | Ratio hCT/hAmylin binding [3, 6] | Ratio hCT/hAmylin binding [3, 7] | IC50 [3] | Ratio hCT/hAmylin binding [3, 8] | IC50 [4] | Ratio hCT/hAmylin funct. ([1]; Table 6, human functional selectivity (hCTR EC50 / hAmylin-R EC50)) | Ratio hCT/hAmylin funct. ([1]; Table 6a, human functional selectivity (hCTR EC50 / hAmylin-R EC50), at least 5) | Ratio hCT/hAmylin funct. ([1]; Table 6i, hCTR funct. EC50 / hAmylin-R funct. EC50) | EC50 ([1]; Table 6i, human amylin receptor functional) | Ratio hCT/hAmylin funct. ([1]; Table 6j, hCTR funct. EC50 / hAmylin-R funct. EC50) | Structure (SMILES)
0.106 nM | 2.39 nM | – | – | 1.19 nM | – | 12.9 nM | – | – | – | – | – | CC[C@H](C)[C@H](NC(=O)[C@H](C)NC(=O)CNC(=O)[C@H](Cc1ccccc1)NC(=O)[C@H](CC(N)=O)NC(=O)[C@@H]1CCCN1C(=O)[C@H](CO)NC(=O)[C@H](CO)NC(=O)[C@H](Cc1c[nH]cn1)NC(=O)[C@H](CCCNC(=N)N)NC(=O)[C@H](CC(C)C)NC(=O)[C@H](Cc1ccccc1)NC(=O)[C@H](CC(N)=O)NC(=O)[C@H](C)NC(=O)[C@H](CC(C)C)NC(=O)[C@H](CCCNC(=N)N)NC(=O)[C@H](CCC(N)=O)NC(=O)[C@@H](NC(=O)[C@H](C)NC(=O)[C@@H]1CSSC[C@H](NC(=O)[C@@H](N)CCCCNC(=O)COCCOCCNC(=O)CC[C@H](NC(=O)CCCCCCCCCCCCCCCCCCC(=O)O)C(=O)O)C(=O)N[C@@H](CC(N)=O)C(=O)N[C@@H]([C@@H](C)O)C(=O)N[C@@H](C)C(=O)N[C@@H]([C@@H](C)O)C(=O)N1)[C@@H](C)O)C(=O)N1CCC[C@H]1C(=O)N[C@@H](CO)C(=O)N[C@@H](CO)C(=O)N[C@H](C(=O)N1CCC[C@H]1C(=O)N[C@H](C(=O)NCC(=O)N[C@@H](CO)C(=O)N[C@@H](CC(N)=O)C(=O)N[C@H](C(=O)N[C@@H](Cc1ccc(O)cc1)C(N)=O)[C@@H](C)O)C(C)C)[C@@H](C)O [Example 49]
0.051 nM | 0.554 nM | – | – | 0.122 nM | – | 8.11 nM | – | – | – | – | – | CC[C@H](C)[C@H](NC(=O)[C@H](C)NC(=O)CNC(=O)[C@H](Cc1ccccc1)NC(=O)[C@H](CC(N)=O)NC(=O)[C@@H]1CCCN1C(=O)[C@H](CO)NC(=O)[C@H](CO)NC(=O)[C@H](Cc1c[nH]cn1)NC(=O)[C@H](CCCNC(=N)N)NC(=O)[C@H](CC(C)C)NC(=O)[C@H](Cc1ccccc1)NC(=O)[C@H](Cc1c[nH]cn1)NC(=O)[C@H](C)NC(=O)[C@H](CC(C)C)NC(=O)[C@H](CCCNC(=N)N)NC(=O)[C@H](CCC(N)=O)NC(=O)[C@@H](NC(=O)[C@H](C)NC(=O)[C@@H]1CSSC[C@H](NC(=O)[C@@H](N)CCCCNC(=O)COCCOCCNC(=O)CC[C@H](NC(=O)CCCCCCCCCCCCCCCCCCC(=O)O)C(=O)O)C(=O)N[C@@H](CC(N)=O)C(=O)N[C@@H]([C@@H](C)O)C(=O)N[C@@H](C)C(=O)N[C@@H]([C@@H](C)O)C(=O)N1)[C@@H](C)O)C(=O)N1CCC[C@H]1C(=O)N[C@@H](CO)C(=O)N[C@@H](CO)C(=O)N[C@H](C(=O)N1CCC[C@H]1C(=O)N[C@H](C(=O)NCC(=O)N[C@@H](CO)C(=O)N[C@@H](CC(N)=O)C(=O)N[C@H](C(=O)N[C@@H](Cc1ccc(O)cc1)C(N)=O)[C@@H](C)O)C(C)C)[C@@H](C)O [Example 61] (H-K([AEEA-γGlu-C20 diacid])CNTATCATQRLAHFLRHSSPNFGAIPSSTPVGSNTY-NH2; disulfide 2-7)
